Target: T1, human PPARα (Homo sapiens, UniProt Q07869)
T1 construct: 1.6 kb of DNA fragment including human PPARα gene was collected from the gel; expressed in transfected cells; host or cells: CV-1 cells, transient transfection with pCI-hPPARa, pCI-hRXRa and the reporter pGL3-PPRE3-TK
T1 sequence (Q07869 1-468): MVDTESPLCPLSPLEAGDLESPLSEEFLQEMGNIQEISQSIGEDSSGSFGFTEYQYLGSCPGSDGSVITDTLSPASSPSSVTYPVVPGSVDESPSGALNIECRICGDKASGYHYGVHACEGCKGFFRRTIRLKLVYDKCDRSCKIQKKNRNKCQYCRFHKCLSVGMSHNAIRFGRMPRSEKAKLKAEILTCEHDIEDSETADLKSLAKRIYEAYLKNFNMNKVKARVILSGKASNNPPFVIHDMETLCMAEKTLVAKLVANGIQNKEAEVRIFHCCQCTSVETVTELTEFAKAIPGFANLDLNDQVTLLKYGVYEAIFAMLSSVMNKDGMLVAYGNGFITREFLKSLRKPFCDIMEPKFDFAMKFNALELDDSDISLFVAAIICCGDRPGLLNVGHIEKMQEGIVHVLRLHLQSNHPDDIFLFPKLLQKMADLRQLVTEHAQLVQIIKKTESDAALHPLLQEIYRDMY
T1 sequence (P19793 1-462 partner): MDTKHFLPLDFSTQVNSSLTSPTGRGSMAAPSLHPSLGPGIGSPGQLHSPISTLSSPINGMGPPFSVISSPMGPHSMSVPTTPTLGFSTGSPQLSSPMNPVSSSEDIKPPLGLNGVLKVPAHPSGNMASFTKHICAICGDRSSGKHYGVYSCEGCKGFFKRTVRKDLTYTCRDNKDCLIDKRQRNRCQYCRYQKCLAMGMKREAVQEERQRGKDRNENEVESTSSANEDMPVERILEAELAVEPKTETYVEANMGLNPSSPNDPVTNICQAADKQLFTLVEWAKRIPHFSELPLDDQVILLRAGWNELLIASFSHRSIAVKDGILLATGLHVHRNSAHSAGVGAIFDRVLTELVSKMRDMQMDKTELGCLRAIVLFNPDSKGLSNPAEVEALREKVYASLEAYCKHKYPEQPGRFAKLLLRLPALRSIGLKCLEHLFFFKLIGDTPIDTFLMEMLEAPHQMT
Experiment: Human PPARα agonist assay (luciferase reporter in transfected CV-1 cells)
Format: cell-based
Conditions: at 1 μM test compound alone; 100% = 1 μM stimulant (GW7647) only; CV-1 cells expressing human PPARα and RXRα
Procedure: CV-1 cells (96 well plate), where human PPARα and RXRα has expressed in the transient transfection of reporter plasmid (see reference 6a) were washed once with PBS (100 μL/well), and then supplemented with 100 μL/well of DMEM medium including 10% of fetal bovine serum to which test compounds at final concentrations of 10 nM, 30 nM, 100 nM, 300 nM, 1 μM, and 3 μM, as well as GW7647 (not limited to GW7647 shown as an example, but may be any PPARα agonist) at a final concentration of 1 nM as a stimulant were added, and incubated in a 5% CO2 incubator at 37° C. for 24 hours. After removing the medium, the CV-1 cells were washed once with PBS (100 μL/well), and supplemented with 60 μL/well of 1× Passive Lysis Buffer (manufactured by Promega Corporation). The CV-1 cells were incubated at room temperature for 30 minutes, stirred, and then by using Dual-Luciferase Reporter Assay System (manufactured by Promega Corporation), luciferase activities of firefly and renilla were measured using 1420 ARVO Multilabel Counter (manufactured by Wallac Oy). Also, the same experiments as that described above were respectively carried out for the cases where only the above-mentioned stimulant (10 nM, 100 nM, 1 μM) were used, where only the above-mentioned test compounds were used, or where neither was used (nonsupplemented), and luciferase activities of firefly and renilla were measured. Values corrected by dividing the firefly luciferase activities by the renilla luciferase activities were calculated as specific activities and used for evaluations. […]
Also, human PPARα agonist activities of the test compounds were evaluated by using a percentage (activity) where the specific activity when nonsupplemented is regarded as 0% and the specific activity in case only 1 μM stimulant was added is regarded as 100%, from the specific activity in case only the test compound is used.
CV-1 cells were cultured in DMEM medium (manufactured by Invitrogen Corporation) including 10% fetal bovine serum (manufactured by Dainippon Pharmaceutical Co., Ltd.) in 225T-Flask (manufactured by Corning Costar). The cells were detached by 0.5 g/L trypsin-0.2 g/L EDTA (ethylene diamine tetra-acetic acid) (manufactured by Invitrogen Corporation), and then suspended in the DMEM medium including 10% fetal bovine serum to a cell concentration of 2×10^5 cells/mL. Thereafter, the cells were seeded into 96 well plate at 2×10^4 cells/0.1 mL/well, incubated in the CO2 incubator at 37° C. overnight, and then the plasmids prepared by the above-mentioned reference 2a, reference 3a, and reference 4a were transfected into cells by using a lipofectamine reagent (manufactured by Invitrogen Corporation) according to the attached manual.
Namely, after CV-1 cells were cultured overnight, the cells were washed with PBS (100 μL/well). Thereafter the cells were incubated for 5 hours at 37° C./5% CO2 in the MEM medium (manufactured by Invitrogen Corporation) including 430 ng/mL of human PPARα expression plasmid (pCI-hPPARa) prepared by the reference 2a, 430 ng/mL of human RXRα expression plasmid (pCI-hRXRa) prepared by the reference 3a, and 140 ng/mL of the reporter plasmid (pGL3-PPRE3-TK) prepared by the reference 4a, 10 ng/mL of phRL-TK vector (manufactured by Promega Corporation) and 2 μL/mL of lipofectamine.

Row | SMILES | Human PPARα agonist activities, Activity % (at 1 μM)
1 | COc1cc(Cn2c3ccccc3c3c(OC(C)(C)C(=O)[O-])cccc32)ccc1OCc1nc(-c2ccccc2)oc1C.[Na+] [Example 28, sodium 2-{9-[3-methoxy-4-((5-methyl-2-phenyl-oxazole-4-yl)methoxy)-benzyl]-9H-carbazole-4-yloxy}-2-methyl-propionate] | 56%
2 | COc1cc(Cn2c3ccccc3c3c(OC(C)(C)C(=O)O)cccc32)ccc1OCc1nc(-c2ccccc2)oc1C [Example 3, 2-{9-[3-methoxy-4-((5-methyl-2-phenyl-oxazole-4-yl)methoxy)-benzyl]-9H-carbazole-4-yloxy}-2-methyl-propionic acid] | 43%
3 | CCC(Oc1cccc2c1c1ccccc1n2Cc1ccc(OCc2nc(-c3ccccc3)oc2C)c(OC)c1)C(=O)O (racemic) [Example 5, (±)-2-{9-[3-methoxy-4-((5-methyl-2-phenyl-oxazole-4-yl)methoxy)-benzyl]-9H-carbazole-4-yloxy}butyric acid] | 27%
4 | COc1cc(Cn2c3ccccc3c3c(OC(C)C(=O)[O-])cccc32)ccc1OCc1nc(-c2ccccc2)oc1C.[Na+] (racemic) [Example 30] | 35%
5 | COc1cc(Cn2c3ccccc3c3c(OC(C)(C)C(=O)O)cccc32)ccc1OCc1nc(-c2ccccc2)sc1C [Example 15, 2-{9-[3-methoxy-4-((5-methyl-2-phenyl-thiazole-4-yl)methoxy)-benzyl]-9H-carbazole-4-yloxy}-2-methyl-propionic acid] | 73%
6 | COc1cc(Cn2c3ccccc3c3c(O[C@H](C)C(=O)[O-])cccc32)ccc1OCc1nc(-c2ccccc2)oc1C.[Na+] [Example 43, sodium (R)-2-{9-[3-methoxy-4-((5-methyl-2-phenyl-oxazole-4-yl)methoxy)-benzyl]-9H-carbazole-4-yloxy}propionate] | 35%
7 | Cc1oc(-c2ccccc2)nc1COc1ccc(Cn2c3ccccc3c3c(OC(C)(C)C(=O)O)cccc32)cc1 [Example 13, 2-methyl-2-{9-[4-((5-methyl-2-phenyl-oxazole-4-yl)methoxy)-benzyl]-9H-carbazole-4-yloxy}propionic acid] | 37%
8 | COc1cc(Cn2c3ccccc3c3c(OC(C)(C)C(=O)O)cccc32)ccc1OCc1sc(-c2ccccc2)nc1C [Example 16, 2-{9-[3-methoxy-4-((4-methyl-2-phenyl-thiazole-5-yl)methoxy)-benzyl]-9H-carbazole-4-yloxy}-2-methyl-propionic acid] | 56%
9 | COc1cc(Cn2c3ccccc3c3c(OCCC(C)C(=O)[O-])cccc32)ccc1OCc1nc(-c2ccccc2)oc1C.[Na+] (racemic) [Example 37] | 20%
10 | COc1cc(Cn2c3ccccc3c3c(OCC(C)(C)C(=O)O)cccc32)ccc1OCc1nc(-c2ccncc2)oc1C [Example 25, 3-{9-[3-methoxy-4-((5-methyl-2-pyridine-4-yl-oxazole-4-yl)methoxy)-benzyl]-9H-carbazole-4-yloxy}-2,2-dimethyl-propionic acid] | 47%
11 | COc1cc(Cn2c3ccccc3c3c(OCC(C)(C)C(=O)O)cccc32)ccc1OCc1nc(-c2ccco2)oc1C [Example 23, 3-{9-[4-((2-(furan-2-yl)-5-methyl-oxazole-4-yl)methoxy)-3-methoxy-benzyl]-9H-carbazole-4-yloxy}-2,2-dimethyl-propionic acid] | 69%
12 | CCC(Oc1cccc2c1c1ccccc1n2Cc1ccc(OCc2nc(-c3ccccc3)oc2C)c(OC)c1)C(=O)[O-].[Na+] (centres unmarked) [Example 31] | 21%
13 | COc1cc(Cn2c3ccccc3c3c(OCCC(C)C(=O)O)cccc32)ccc1OCc1nc(-c2ccccc2)oc1C (racemic) [Example 27, (±)-4-{9-[3-methoxy-4-((5-methyl-2-phenyl-oxazole-4-yl)methoxy)-benzyl]-9H-carbazole-4-yloxy}-2-methyl-butyric acid] | 23%
14 | COc1cc(Cn2c3ccccc3c3c(OC(C)(C)C(=O)[O-])cccc32)ccc1OCc1nc(-c2cccs2)oc1C.[Na+] [Example 32] | 66%
15 | CC[C@H](Oc1cccc2c1c1ccccc1n2Cc1ccc(OCc2nc(-c3ccccc3)oc2C)c(OC)c1)C(=O)[O-].[Na+] [Example 38, sodium (S)-(+)-2-{9-[3-methoxy-4-((5-methyl-2-phenyl-oxazole-4-yl)methoxy)-benzyl]-9H-carbazole-4-yloxy}butyrate] | 32%
16 | COc1cc(Cn2c3ccccc3c3c(OC(C)(C)C(=O)O)cccc32)ccc1OCc1nc(-c2ccco2)oc1C [Example 7, 2-{9-[4-((2-(furan-2-yl)-5-methyl-oxazole-4-yl)methoxy)-3-methoxy-benzyl]-9H-carbazole-4-yloxy-}2-methyl-propionic acid] | 39%
17 | COc1cc(Cn2c3ccccc3c3c(OCC(C)(C)C(=O)O)cccc32)ccc1OCc1nc(-c2cccs2)oc1C [Example 24, 3-{9-[3-methoxy-4-((5-methyl-2-(thiophene-2-yl)-oxazole-4-yl)methoxy)-benzyl]-9H-carbazole-4-yloxy}-2,2-dimethyl-propionic acid] | 64%
18 | COc1cc(Cn2c3ccccc3c3c(OC(C)(C)C(=O)O)cccc32)ccc1OCc1nc(-c2cccs2)oc1C [Example 8, 2-{9-[3-methoxy-4-((5-methyl-2-(thiophene-2-yl)-oxazole-4-yl)methoxy)-benzyl]-9H-carbazole-4-yloxy}-2-methyl-propionic acid] | 60%
19 | COc1cc(Cn2c3ccccc3c3c(OCC(C)(C)C(=O)O)cccc32)ccc1OCc1nc(-c2ccccc2)oc1C [Example 22, 3-{9-[3-methoxy-4-((5-methyl-2-phenyl-oxazole-4-yl)methoxy)-benzyl]-9H-carbazole-4-yloxy}-2,2-dimethyl-propionic acid] | 40%
20 | COc1cc(Cn2c3ccccc3c3c(OC(C)C(=O)O)cccc32)ccc1OCc1nc(-c2ccccc2)oc1C (racemic) [Example 4, (±)-2-{9-[3-methoxy-4-((5-methyl-2-phenyl-oxazole-4-yl)methoxy)-benzyl]-9H-carbazole-4-yloxy}propionic acid] | 21%

Source: patent US8329913B2, “Carbazole derivative, solvate thereof, or pharmaceutically acceptable salt thereof” (Zeria Pharmaceutical Co., Ltd., priority 2004, dated 2012)
